Experimental data reported in patent US10513511B2, “Aqueous suspension formulation comprising 4-(4-(4-(((3R,5R)-5-((1H-1,2,4-triazol-1-yl)methyl)-5-(2,4-difluoro-phenyl)tetrahydrofuran-3-yl)methoxy)-3-methylphenyl) or a pharmaceutically acceptable salt thereof” (PULMOCIDE LIMITED, priority 2015, dated 2019).
In brackets after ≈: the same amount, converted by molar mass.

Assays:
IL-6 = experiment: Serum IL-6 in Aspergillus fumigatus infected, immunocompromised, neutropenic mice; format: in vivo, A/J mice; conditions: for IL-6 in serum, % Inhibition / Conc of Biomarkers, IL-6 in serum: therapeutic; for Conc of Biomarkers, IL-6 in serum: mean ± SEM, N = 6
Procedure: (§1) Aspergillus fumigatus (ATCC 13073 [strain: NIH 5233], American Type Culture Collection, Manassas, Va., USA) was grown on Malt agar (Nissui Pharmaceutical, Tokyo, Japan) plates for 6-7 days at RT (24±1° C.). Spores were aseptically dislodged from the agar plates and suspended in sterile distilled water with 0.05% Tween 80 and 0.1% agar. On the day of infection, spore counts were assessed by haemocytometer and the inoculum was adjusted to obtain a concentration of 1.67×10^8 spores mL^−1 of physiological saline. […] On day 0, animals were infected with the spore suspension (30 μL intra-nasally).
(§2) Test substances were administered intra-nasally (35 μL of a suspension (0.0032-10.0 mg/mL of drug substance in physiological saline) once daily, on days 1, 2 and 3 only (thereby representing a therapeutic treatment regimen). For extended prophylactic treatment, test compounds (35 μL of a suspension of 0.0032 or 0.016 mg/mL in physiological saline) were administered intra-nasally once daily for seven days. One group was dosed 30 min before infection on day 0 but not subsequently, while a second group was further dosed on days 1, 2 and 3 after infection. The effects of these treatment paradigms were compared with those obtained when treatment was restricted in other groups to either one day or 30 min before inoculation and then on days 1, 2 and 3 post infection in both cases. In a final group, dosing was limited still further with animals dosed twice, one day and 30 min before infection only.
(§3) Animal body weights were monitored daily and at 6 hr after the last dose of drug was administered on day 3, the animals were anesthetised, the tracheas cannulated and BALF blood and lung tissue were collected. The levels of IL-6 and TNFα in serum were determined using Quantikine® mouse IL-6 or TNF-α ELISA kit (R&D systems, Inc., Minneapolis, Minn., USA) respectively. Aspergillus GM in serum was determination using Platelia GM-EIA kits (Bio-Rad Laboratories, Redmond, Wash., USA). Cut-off index (COI) was calculated by the formula: Cut-off index=OD in sample/OD in cut-off control provided in kit. For tissue fungal load assays, 100 mg of lung tissue was removed aseptically and homogenized in 0.2 mL of 0.1% agar in sterile distilled water. Serially diluted lung homogenates were plated on Malt agar plates (50 μL/plate), and incubated at 24±1° C. for 72 to 96 h. The colonies of A. fumigatus on each plate were counted and the fungal titre presented herein as CFUs per gram of lung tissue.

TNFα = experiment: Serum TNFα in Aspergillus fumigatus infected, immunocompromised, neutropenic mice; format: in vivo, A/J mice; conditions: for TNFα in serum, % Inhibition / Conc of Biomarkers, TNFα in serum: therapeutic; for Conc of Biomarkers, TNFα in serum: mean ± SEM, N = 6
Procedure: as §1, §2, §3

BEAS2B cells = experiment: Cell viability: resazurin assay; format: cell-based; conditions: at concentrations indicated in Table 4
Procedure: BEAS2B cells were seeded in 384-well plates (100 μL; 3000/well/; BD Falcon, Catalogue No 353962) in RPMI-LHC8 (RPMI-1640 and LHC8 media combined in equal proportions) one day before experimentation. For cell-free control wells, RPMI-LHC8 (100 μL) was added. Test compounds (0.5 μL of a DMSO solution) were added to give a final DMSO concentration of 0.5% using an Integra VIAFLO 96 (Integra, Zizers, Switzerland). BEAS2B cells were incubated with each test compound for 1 day (37° C./5% CO2 in RPMI-LHC8). After addition of resazurin stock solution (5 μL, 0.04%) the plates were incubated for a further 4 hr (37° C./5% CO2). The fluorescence of each well at 545 nm (excitation) and 590 nm (emission) was determined using a multi-scanner (Clariostar: BMG Labtech). The percentage loss of cell viability was calculated for each well relative to vehicle (0.5% DMSO) treatment. Where appropriate, a CC50 value was calculated from the concentration-response curve generated from the concentration-response curve for each test compound.

[1] = system: Cladosporium herbarum NCPF2564; experiment: Fungus panel screening, CLSI broth microdilution; format: cell-based
Procedure: Fungus panel screening was conducted by Eurofins Panlabs Inc. The MIC and MIC50 values of the test articles were determined following the guidelines of the CLSI: broth microdilution methods for yeast (CLSI M27-A2), (CLSI, 2002) and for filamentous fungi (CLSI M38-A), (CLSI, 2008).

[2] = system: Aspergillus fumigatus (ATCC 13073); experiment: In vivo anti-fungal activity, extended prophylactic dosing in infected immunocompromised neutropenic mice; set-up: species or system A/J mice; conditions: for CFU in lung: mean ± SEM, N = 5
Procedure: as §1
as §2, with “For extended prophylactic treatment, test compounds (35 μL of a suspension of 0.0032 or 0.016 mg/mL in physiological saline) were administered intra-nasally once daily for seven days.” left out
as §3

[3] = serum, title: Therapeutic Treatment
[4] = Days dosed −1 to + 3, 0.64 μg/mL
[5] = Days dosed −1 to + 3, 3.2 μg/mL
[6] = Days dosed −7 to + 3, 0.64 μg/mL
[7] = Days dosed −7 to + 3, 3.2 μg/mL

In the case of `Cc1cc(N2CCN(c3ccc(C(=O)N[C@H]4CCCC[C@@H]4O)cc3)CC2)ccc1OC[C@@H]1CO[C@@](Cn2cncn2)(c2ccc(F)cc2F)C1` [Compound (Ia), 4-(4-(4-(((3R,5R)-5-((1H-1,2,4-triazol-1-yl)methyl)-5-(2,4-difluorophenyl)tetrahydrofuran-3-yl)methoxy)-3-methylphenyl)piperazin-1-yl)-N-((1S,2S)-2-hydroxycyclohexyl) benzamide], the “IL-6 in serum, % Inhibition” value (IL-6; Drug Conc 3.2 μg/mL) is reported as 17%, the “Conc of Biomarkers, IL-6 in serum” value (IL-6; Drug Conc 3.2 μg/mL) is reported as 247 ± 185 pg/mL and the “IL-6 in serum, % Inhibition” value (IL-6; Drug Conc 16 μg/mL) is reported as 12%. For the same molecule, the “Conc of Biomarkers, IL-6 in serum” value (IL-6; Drug Conc 16 μg/mL) was 262 ± 185 pg/mL, the “IL-6 in serum, % Inhibition” value (IL-6; Drug Conc 80 μg/mL) was 78% and the “Conc of Biomarkers, IL-6 in serum” value (IL-6; Drug Conc 80 μg/mL) was 66.5 ± 32.9 pg/mL. The “ID50 Values for biomarkers indicated, IL-6” value (IL-6; [3]) was 50 µg/mL, the “TNFα in serum, % Inhibition” value (TNFα; Drug Conc 3.2 μg/mL) was 20% and the “Conc of Biomarkers, TNFα in serum” value (TNFα; Drug Conc 3.2 μg/mL) was 28.1 ± 13.8 pg/mL. For the same molecule, the “TNFα in serum, % Inhibition” value (TNFα; Drug Conc 16 μg/mL) was 38%, the “Conc of Biomarkers, TNFα in serum” value (TNFα; Drug Conc 16 μg/mL) was 21.8 ± 14.6 pg/mL and the “TNFα in serum, % Inhibition” value (TNFα; Drug Conc 80 μg/mL) was 87%. The “Conc of Biomarkers, TNFα in serum” value (TNFα; Drug Conc 80 μg/mL) was 4.7 ± 1.0 pg/mL, the “ID50 Values for biomarkers indicated, TNFα” value (TNFα; [3]) was 27 µg/mL and the “effect on the viability of BEAS2B bronchial epithelial cells” value (BEAS2B cells) was “no or little effect”. The MIC50 ([1]; 50% inhibition by visual inspection (CLSI)) was 0.016 µg/mL (≈ 0.0233 µM), the MIC ([1]; 100% inhibition by visual inspection (CLSI), read-out: MIC100) was 0.016 µg/mL (≈ 0.0233 µM) and the “CFU in lung, % Inhibition” value ([2]; Days dosed −1, 0, 3.2 μg/mL) was −222%. For the same molecule, the “GM in BALF” value ([2]; Days dosed −1, 0, 3.2 μg/mL) was 4.5 ± 0.63 COI, the “GM in BALF, % Inhibition” value ([2]; Days dosed −1, 0, 3.2 μg/mL) was −10% and the “GM in Serum” value ([2]; Days dosed −1, 0, 3.2 μg/mL) was 4.7 ± 0.65 COI. For the same molecule, the “GM in Serum, % Inhibition” value ([2]; Days dosed −1, 0, 3.2 μg/mL) was −21%, the CFU in lung ([2]; Days dosed −1, 0, 3.2 μg/mL intranasal) was 20.4 ± 15.7 /mg of lung and the “CFU in lung, % Inhibition” value [2, 4] was 57%. The “GM in BALF” value [2, 4] was 3.9 ± 0.59 COI, the “GM in BALF, % Inhibition” value [2, 4] was 5% and the “GM in Serum” value [2, 4] was 3.6 ± 0.52 COI. The “GM in Serum, % Inhibition” value [2, 4] was 8%, the CFU in lung ([2]; Days dosed −1 to + 3, 0.64 μg/mL intranasal) was 4.0 ± 5.2 /mg of lung and the “CFU in lung, % Inhibition” value [2, 5] was 89%. The “GM in BALF” value [2, 5] was 3.4 ± 0.46 COI, the “GM in BALF, % Inhibition” value [2, 5] was 17% and the “GM in Serum” value [2, 5] was 2.8 ± 0.24 COI. For the same molecule, the “GM in Serum, % Inhibition” value [2, 5] was 28%, the CFU in lung ([2]; Days dosed −1 to + 3, 3.2 μg/mL intranasal) was 1.0 ± 1.4 /mg of lung and the “CFU in lung, % Inhibition” value ([2]; Days dosed −7 to 0, 3.2 μg/mL) was 90%. For the same molecule, the “GM in BALF” value ([2]; Days dosed −7 to 0, 3.2 μg/mL) was 2.9 ± 0.97 COI, the “GM in BALF, % Inhibition” value ([2]; Days dosed −7 to 0, 3.2 μg/mL) was 29% and the “GM in Serum” value ([2]; Days dosed −7 to 0, 3.2 μg/mL) was 2.6 ± 0.48 COI. The “GM in Serum, % Inhibition” value ([2]; Days dosed −7 to 0, 3.2 μg/mL) was 33%, the CFU in lung ([2]; Days dosed −7 to 0, 3.2 μg/mL intranasal) was 0.9 ± 1.1 /mg of lung and the “CFU in lung, % Inhibition” value [2, 6] was 78%. The “GM in BALF” value [2, 6] was 3.1 ± 0.85 COI, the “GM in BALF, % Inhibition” value [2, 6] was 24% and the “GM in Serum” value [2, 6] was 2.6 ± 0.82 COI. The “GM in Serum, % Inhibition” value [2, 6] was 33%, the CFU in lung ([2]; Days dosed −7 to + 3, 0.64 μg/mL intranasal) was 2.0 ± 3.6 /mg of lung and the “CFU in lung, % Inhibition” value [2, 7] was 99.6%. For the same molecule, the “GM in BALF” value [2, 7] was 1.5 ± 0.59 COI, the “GM in BALF, % Inhibition” value [2, 7] was 63% and the “GM in Serum” value [2, 7] was 1.5 ± 0.85 COI. For the same molecule, the “GM in Serum, % Inhibition” value [2, 7] was 62% and the CFU in lung ([2]; Days dosed −7 to + 3, 3.2 μg/mL intranasal) was 0.04 ± 0.08 /mg of lung.
